Consider 22 molecules from US8697731B2, “Derivatives of 2-pyridin-2-yl-pyrazol-3(2H)-one, preparation and therapeutic use thereof” (Sanofi, priority 2008, dated 2014).

Where a name gives a salt, the structure may show the parent alone.

In one data set the test system is HIF1-alpha. The data set is described as follows: Measurement of the stabilization of HIF1-alpha in HEKEA cells (beta-galactosidase complementation). The class given is cell-based, human. As to conditions: HEKEA_HIF1-alphaPLBL cells, 6 hours under normoxia, luminescence; molar concentration that produces 50% of the maximum response of this same compound. From the text: Furthermore, a subject of the invention is also a uniform test for the direct measurement by beta-galactosidase complementation of the amount of HIF1-alpha protein in the nucleus of cells, preferably HEK cells, after treating the said cells with one or more test compounds, which consists in: • (a) inoculating, preferably in 384-well plates, the said cells in a suitable culture medium, preferably 1% foetal calf serum (abbreviated as FCS); • (b) adding the test compound(s) at a suitable concentration in a suitable solvent to the cells previously inoculated in the said culture medium; preferably the test compounds are diluted in 0.1% FCS; • (c) incubating the said cells thus prepared in an indicator at about 37° C., advantageously for about 6 hours; • (d) lysing the cells with a lysis buffer containing a chemiluminescent substrate for beta-galactosidase; • (e) incubating in the absence of light, before reading and measuring the luminescence, which is a function of the beta-galactosidase activity.
The test is a cell test based on the principle of enzyme complementation, the enzyme used herein being beta-galactosidase. HEKEA cells are HEK cells stably expressing, and restricted in their nucleus, mutant beta-galactosidase (omega fragment, also known as EA) (line sold by DiscoverX). This construct makes it possible to obtain beta-galactosidase activity only when the protein comprising the Prolabel complementation fragment has migrated into the nucleus.
The protein of interest comprising the Prolabel fragment is in this case an HIF1-alpha or HIF1-alpha mutated at the two prolines 402 and 564 replaced with alanines, is C-terminal fused via molecular biology (DiscoverX vector sold by Clontech) with the small complementation peptide fragment (Prolabel or ED, about 4 kDa). The vector coding for the chimeric protein HIF1-alpha_Prolabel is then transfected into HEKEA cells to obtain stable clones (HEKEA_HIF1-alphaPLBL).
The amount of C-terminal Prolabel-“labelled” HIF1-alpha protein obtained after treating the cells to hypoxia or compounds that are potentially HIF activators is measured by adding to the cells a lysis buffer containing a chemiluminescent substrate for beta-galactosidase.
The measurement of the beta-galactosidase activity will be proportional to the amount of Prolabel and thus of HIF1-alpha that has migrated into the nucleus of the cells.
1.3.1 Experiment Plan • 1) Inoculation of the cells on D0 • 2) Adherence for 24 hours under normoxia • 3) Preparation and addition of the products (Biomek 2000 and FX) on D+1 • 4) Incubation under normoxia for 6 hours • 5) Reading of the plates (by luminescence)
The cells are inoculated with Multidrop in white, opaque-bottomed 384-well plates (Greiner ref 3704), in 30 μl of culture medium (1% FCS) a 10000 cells/well (cell plate).
The test products are prepared at 3×10^−2 M in 100% DMSO and then diluted to 3×10^−4 M in medium containing 0.1% FCS (10 μl in 990 μl of MEM). They are then deposited by hand into column 12 of a round-bottomed 96-well plate (200 μl of each compound) known as the dilution plate (dl). The complete DL plate of 3×10^−4 M to 10^−9 M is then prepared with Biomek 2000 (programme: range of 10 points in series). For the references and controls, 100 μl of DMEM containing 0.1% FCS are added to column 1, 100 μl of Deferoxamine 10^−3M to column 2, wells A B C D and 100 μl of Deferoxamine 5×10^−3 M to column 2, wells E F G H.
3.3 μL are taken from the DL plate by pipetting with a Biomek FX 96 and placed in horizontal duplicate (columns 1 to 24) in each 384-well cell plate (HEKEA_HIF1-alphaPLBL cell plate).
The cells are then placed for 6 hours in an incubator at 37° C. (ambient O2, 6% CO2).
The kit used is the Prolabel chemiluminescent kit (Ref 93-0001 DiscoverX). […]

In general, melting point refers to the temperature of the solid-liquid transition. For the molecule `CN(Cc1ccccn1)S(=O)(=O)c1ccc(-n2[nH]c3c(c2=O)CSC3)nc1` (as salt: HCl) [Compound 27, N-methyl-6-(3-oxo-4,6-dihydro-1H-thieno[3,4-c]pyrazol-2(3H)-yl)-N-(pyridin-2-ylmethyl)pyridine-3-sulfonamide], the melting point came to 198 °C. `CN(C)c1ccnc(-n2[nH]c3c(c2=O)CSC3)c1` (as salt: HCl) [Compound 60, 2-[4-(dimethylamino)pyridin-2-yl]-1,2,4,6-tetrahydro-3H-thieno[3,4-c]pyrazol-3-one hydrochloride] came in with a melting point of 182 °C.

The molecule `CCN(C(C)(C)C)S(=O)(=O)c1ccc(-n2nc3c(c2O)CSC3)nc1` (as salt: Na) [Compound 32, sodium 2-{5-[tert-butyl(ethyl)sulfamoyl]pyridin-2-yl}-2,6-dihydro-4H-thieno[3,4-c]pyrazol-3-olate] yielded a melting point greater than 260 °C. With `CCN(c1ccccc1)S(=O)(=O)c1ccc(-n2nc3c(c2O)N(Cc2ccccc2)C(=O)CC3)nc1` (as salt: Na) [Compound 35, sodium 4-benzyl-2-{5-[ethyl(phenyl)sulfamoyl]pyridin-2-yl}-5-oxo-4,5,6,7-tetrahydro-2H-pyrazolo[4,3-b]pyridin-3-olate], the melting point was greater than 250 °C. In the case of `CN(C(C)(C)C)S(=O)(=O)c1ccc(-n2nc3c(c2O)CSC3)nc1` (as salt: Na) [Compound 36, sodium 2-{5-[tert-butyl(methyl)sulfamoyl]pyridin-2-yl}-2,6-dihydro-4H-thieno[3,4-c]pyrazol-3-olate], the melting point turned out to be 130 °C. `CCc1ccnc(-n2[nH]c3c(c2=O)CSC3)c1` (as salt: Na) [Compound 61, sodium 2-(4-ethylpyridin-2-yl)-2,6-dihydro-4H-thieno[3,4-c]pyrazol-3-olate]: the melting point is greater than 260 °C. `Oc1c2c(nn1-c1cc(OCc3cccnc3)ccn1)CSC2` (as salt: Na) [Compound 64, sodium 2-[4-(pyridin-3-ylmethoxy)pyridin-2-yl]-2,6-dihydro-4H-thieno[3,4-c]pyrazol-3-olate] registered a melting point greater than 260 °C. As usually defined, the EC50 is the concentration needed to bring the measured effect to its halfway point. Low readings indicate greater potency, high ones weaker potency. Consider `O=c1c2c([nH]n1-c1ccccn1)CCC2` [Compound 7, 2-(pyridin-2-yl)-1,4,5,6-tetrahydrocyclopenta[c]pyrazol-3(2H)-one], for which the melting point came to 156 °C. In the data set on HIF1-alpha, a half-maximal response (EC50) required 6 µM.

As to `COC1CCc2c1[nH]n(-c1ccccn1)c2=O` (stereo not shown) [Compound 11, 6-methoxy-2-(pyridin-2-yl)-1,4,5,6-tetrahydrocyclopenta[c]pyrazol-3(2H)-one], the melting point was 76 °C. `O=c1c2c([nH]n1-c1ccccn1)CCSC2` [Compound 12, 2-(pyridin-2-yl)-1,4,6,7-tetrahydrothiopyrano[4,3-c]pyrazol-3(2H)-one] registered a melting point of 175 °C. On to `O=c1c2c([nH]n1-c1ccc(S(=O)(=O)Nc3ccccn3)cn1)CSC2` [Compound 23, 6-(3-oxo-4,6-dihydro-1H-thieno[3,4-c]pyrazol-2(3H)-yl)-N-(pyridin-2-yl)pyridine-3-sulfonamide], for which the melting point is greater than 260 °C. The molecule also gave an EC50 in the data set on HIF1-alpha of 12 µM. In the data set on HIF1-alpha, `CN(Cc1ccccn1)S(=O)(=O)c1ccc(-n2[nH]c3c(c2=O)CSC3)nc1` [Compound 27, N-methyl-6-(3-oxo-4,6-dihydro-1H-thieno[3,4-c]pyrazol-2(3H)-yl)-N-(pyridin-2-ylmethyl)pyridine-3-sulfonamide] returned an EC50 of 9.5 µM. In turn, `Cc1ccc(-n2nc3c(c2[O-])CSC3)nc1.[Na+]` [Compound 31, sodium 2-(5-methylpyridin-2-yl)-2,6-dihydro-4H-thieno[3,4-c]pyrazol-3-olate] showed a melting point greater than 220 °C. Consider `CC(C)(C)NC(=O)c1ccc(-n2nc3c(c2O)CSC3)nc1` [Compound 33, sodium 2-[5-(tert-butylcarbamoyl)pyridin-2-yl]-2,6-dihydro-4H-thieno[3,4-c]pyrazol-3-olate], for which, in the data set on HIF1-alpha, the EC50 was 9.4 µM. The molecule `COc1ccc(-n2nc3c(c2[O-])CSC3)nc1.[Na+]` [Compound 34, sodium 2-(5-methoxypyridin-2-yl)-2,6-dihydro-4H-thieno[3,4-c]pyrazol-3-olate] yielded a melting point greater than 220 °C. The molecule further showed an EC50 in the data set on HIF1-alpha of 10 µM. As to `CCN(c1ccccc1)S(=O)(=O)c1ccc(-n2[nH]c3c(c2=O)CCCCCC3)nc1` [Compound 37, N-ethyl-6-(3-oxo-1,3,4,5,6,7,8,9-octahydro-2H-cycloocta[c]pyrazol-2-yl)-N-phenylpyridine-3-sulfonamide], the melting point worked out at 200 °C. Besides, the EC50 with HIF1-alpha was found to be 2.2 µM.

For the molecule `CCN(CC)S(=O)(=O)c1ccc(-n2[nH]c3c(c2=O)CSC3)nc1` [Compound 38, N,N-diethyl-6-(3-oxo-4,6-dihydro-1H-thieno[3,4-c]pyrazol-2(3H)-yl)pyridine-3-sulfonamide], the melting point came to 192 °C. The molecule also yielded an EC50 in the data set on HIF1-alpha of 3.8 µM. `O=c1c2c([nH]n1-c1ccc(S(=O)(=O)N(CC(O)CO)C3CCCC3)cn1)CSC2` (stereo not shown) [Compound 53, N-cyclopentyl-N-(2,3-dihydroxypropyl)-6-(3-oxo-4,6-dihydro-1H-thieno[3,4-c]pyrazol-2(3H)-yl)pyridine-3-sulfonamide] gave a melting point of 190 °C. Take `CC(C)(C)COC(=O)c1ccc(-n2[nH]c3c(c2=O)CN(S(C)(=O)=O)CC3)nc1` [Compound 54, 2,2-dimethylpropyl 6-[5-(methylsulfonyl)-3-oxo-1,3,4,5,6,7-hexahydro-2H-pyrazolo[4,3-c]pyridin-2-yl]pyridine-3-carboxylate]: the melting point is 230 °C. For `CN(C)c1ccnc(-n2[nH]c3c(c2=O)CSC3)c1` [Compound 60, 2-[4-(dimethylamino)pyridin-2-yl]-1,2,4,6-tetrahydro-3H-thieno[3,4-c]pyrazol-3-one hydrochloride], a half-maximal effect in the data set with HIF1-alpha (EC50) was put at 21 µM. As to `Cc1ccnc(-n2nc3c(c2[O-])CSC3)c1.[Na+]` [Compound 62, sodium 2-(4-methylpyridin-2-yl)-2,6-dihydro-4H-thieno[3,4-c]pyrazol-3-olate], the melting point was greater than 250 °C. In the data set with HIF1-alpha, this molecule displayed an EC50 of 3.9 µM.

As for `CC(C)c1ccnc(-n2[nH]c3c(c2=O)CSC3)c1` [Compound 65, 2-[4-(propan-2-yl)pyridin-2-yl]-1,2,4,6-tetrahydro-3H-thieno[3,4-c]pyrazol-3-one], the melting point worked out at 92 °C.
